# “And” between values parts separate entries of the source, which are not always exact repeats. Equal values may be shown once.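 Values below derive from 48-hour exposures of cells grown in 96-well plates, with endpoints linearly interpolated between the two concentrations bracketing the appropriate inhibition level. GI50: concentration for 50% inhibition of growth. TGI denotes the concentration required for complete inhibition of growth.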 *1 amine or outer side, *2 acyl side, *3 side chain or, on linkers, in order; H or OH if unused. Where a SMILES comes first, the peptide text is derived from it. Bridges are numbered along the chain shown (N, C = ends). Roman numbers before positions name the chains, in order. [ ]: non-standard residue; d: D form. Actinocin(9to1) = Cc1c2oc3c(C)ccc(C(=O)[*:1])c3nc-2c(C(=O)[*:2])c(N)c1=O; NMeF = CN[CH](Cc1ccccc1)C(=O)O; Sar = CNCC(=O)O
# Columns and labels:
# Experiment in all cases: NCI anticancer screen, dose series, 48 h
# 786-0 renal = system: 786-0 renal
# A498 renal = system: A498 renal
# A549 NSCLC = system: A549 NSCLC
# ACHN renal = system: ACHN renal
# BT-549 breast = system: BT-549 breast
# CAKI-1 renal = system: CAKI-1 renal
# CCRF-CEM leukemia = system: CCRF-CEM leukemia
# COLO 205 colon = system: COLO 205 colon
# DU-145 prostate = system: DU-145 prostate
# EKVX NSCLC = system: EKVX NSCLC
# HCC-2998 colon = system: HCC-2998 colon
# HCT-116 colon = system: HCT-116 colon
# HCT-15 colon = system: HCT-15 colon
# HL-60(TB) leukemia = system: HL-60(TB) leukemia
# HOP-62 NSCLC = system: HOP-62 NSCLC
# HOP-92 NSCLC = system: HOP-92 NSCLC
# HS 578T breast = system: HS 578T breast
# HT29 colon = system: HT29 colon
# IGROV1 ovarian = system: IGROV1 ovarian
# K-562 leukemia = system: K-562 leukemia
# LOX IMVI melanoma = system: LOX IMVI melanoma
# M14 melanoma = system: M14 melanoma
# MALME-3M melanoma = system: MALME-3M melanoma
# MCF7 breast = system: MCF7 breast
# MDA-MB-231 breast = system: MDA-MB-231 breast
# MDA-MB-435 = system: MDA-MB-435
# MDA-N = system: MDA-N
# MOLT-4 leukemia = system: MOLT-4 leukemia
# NCI-H23 lung = system: NCI-H23 lung
# NCI-H460 lung = system: NCI-H460 lung
# NCI-H522 lung = system: NCI-H522 lung
# NCI/ADR-RES ovarian = system: NCI/ADR-RES ovarian
# OVCAR-3 ovarian = system: OVCAR-3 ovarian
# OVCAR-4 ovarian = system: OVCAR-4 ovarian
# OVCAR-5 ovarian = system: OVCAR-5 ovarian
# OVCAR-8 ovarian = system: OVCAR-8 ovarian
# PC-3 prostate = system: PC-3 prostate
# RPMI-8226 leukemia = system: RPMI-8226 leukemia
# RXF 393 renal = system: RXF 393 renal
# SF-268 CNS = system: SF-268 CNS
# SF-295 CNS = system: SF-295 CNS
# SF-539 CNS = system: SF-539 CNS
# SK-MEL-2 melanoma = system: SK-MEL-2 melanoma
# SK-MEL-28 melanoma = system: SK-MEL-28 melanoma
# SK-MEL-5 melanoma = system: SK-MEL-5 melanoma
# SN12C renal = system: SN12C renal
# SNB-19 CNS = system: SNB-19 CNS
# SNB-75 CNS = system: SNB-75 CNS
# SR leukemia = system: SR leukemia
# SW-620 colon = system: SW-620 colon
# T-47D breast = system: T-47D breast
# TK-10 renal = system: TK-10 renal
# U251 CNS = system: U251 CNS
# UACC-62 melanoma = system: UACC-62 melanoma
# UO-31 renal = system: UO-31 renal
# KM12 colon = system: KM12 colon
# NCI-H226 lung = system: NCI-H226 lung
# SK-OV-3 ovarian = system: SK-OV-3 ovarian
# UACC-257 melanoma = system: UACC-257 melanoma
compound,measurement,setting,value
"Cc1c2oc3c(C)ccc(C(=O)NC4C(=O)NC(C(C)C)C(=O)N5CCCC5C(=O)N(C)CC(=O)N(C)C(Cc5ccccc5)C(=O)OC4C)c3nc-2c(C(=O)NC2C(=O)NC(C(C)C)C(=O)N3CCCC3C(=O)N(C)CC(=O)N(C)C(Cc3ccccc3)C(=O)OC2C)c(N)c1=O (stereo not given) (I: TVP[Sar][NMeF] / II: TVP[Sar][NMeF]; ester I:1-I:C, II:1-II:C; linker I:N-II:N via Actinocin(9to1); configuration not given here)",GI50,786-0 renal,< 10 nM and 3.27 nM
same,TGI,786-0 renal,> 1000 nM
same,TGI,A498 renal,< 10 nM and 37.8 nM
same,GI50,A549 NSCLC,< 10 nM and 1.45 nM
same,TGI,A549 NSCLC,295 nM and > 1000 nM
same,TGI,ACHN renal,> 1000 nM
same,TGI,BT-549 breast,151 nM
same,TGI,CAKI-1 renal,2790 nM and > 223 nM
same,GI50,CCRF-CEM leukemia,0.459 nM
same,TGI,CCRF-CEM leukemia,10.2 nM
same,GI50,COLO 205 colon,3.72 nM
same,TGI,COLO 205 colon,26.6 nM
same,TGI,DU-145 prostate,< 10 nM and 69.8 nM
same,GI50,EKVX NSCLC,< 10 nM and 38.9 nM
same,TGI,EKVX NSCLC,93.1 nM and > 603 nM
same,TGI,HCC-2998 colon,< 10 nM and 48.6 nM
same,GI50,HCT-116 colon,< 10 nM
same,TGI,HCT-116 colon,194 nM and > 1000 nM
same,GI50,HCT-15 colon,< 14.7 nM and 62.2 nM
same,TGI,HCT-15 colon,> 31600 nM
same,GI50,HL-60(TB) leukemia,2.85 nM
same,TGI,HL-60(TB) leukemia,20.5 nM
same,TGI,HOP-62 NSCLC,< 13.4 nM and 32.8 nM
same,TGI,HOP-92 NSCLC,< 47.6 nM and 60.6 nM
same,TGI,HS 578T breast,< 10 nM and 68.5 nM
same,GI50,HT29 colon,< 10 nM and 1.23 nM
same,GI50,IGROV1 ovarian,< 10 nM and 2.8 nM
same,GI50,K-562 leukemia,1.15 nM
same,GI50,LOX IMVI melanoma,< 10 nM and 1.03 nM
same,TGI,LOX IMVI melanoma,< 10 nM
same,TGI,M14 melanoma,126 nM
same,TGI,MALME-3M melanoma,< 10 nM and 49.3 nM
same,GI50,MCF7 breast,1.26 nM
same,TGI,MCF7 breast,13.6 nM
same,GI50,MDA-MB-231 breast,< 10 nM and 31.7 nM
same,TGI,MDA-MB-435,< 10 nM and 95 nM
same,GI50,MDA-N,4.91 nM
same,TGI,MDA-N,56.4 nM
same,GI50,MOLT-4 leukemia,0.346 nM
same,TGI,MOLT-4 leukemia,4.14 nM
same,TGI,NCI-H23 lung,< 10 nM and 37.6 nM
same,GI50,NCI-H460 lung,< 10 nM and 0.74 nM
same,TGI,NCI-H460 lung,< 10 nM and 20.6 nM
same,GI50,NCI-H522 lung,1.55 nM
same,TGI,NCI-H522 lung,20.1 nM
same,TGI,NCI/ADR-RES ovarian,> 1000 nM
same,TGI,OVCAR-3 ovarian,< 10 nM and 45.3 nM
same,TGI,OVCAR-4 ovarian,< 10.9 nM and 33 nM
same,GI50,OVCAR-5 ovarian,< 10 nM and 33.5 nM
same,TGI,OVCAR-5 ovarian,2010 nM and > 410 nM
same,TGI,OVCAR-8 ovarian,132 nM and 54 nM
same,TGI,PC-3 prostate,32.5 nM and 142 nM
same,TGI,RPMI-8226 leukemia,> 1000 nM
same,TGI,RXF 393 renal,< 10 nM and 30.5 nM
same,TGI,SF-268 CNS,> 674 nM
same,TGI,SF-295 CNS,< 14.1 nM and 108 nM
same,TGI,SF-539 CNS,< 10 nM and 43.9 nM
same,TGI,SK-MEL-2 melanoma,< 10 nM and 32.6 nM
same,TGI,SK-MEL-28 melanoma,60 nM
same,TGI,SK-MEL-5 melanoma,< 10 nM and 47.9 nM
same,GI50,SN12C renal,< 10 nM and 2.13 nM
same,GI50,SNB-19 CNS,< 10 nM and 3.78 nM
same,TGI,SNB-19 CNS,118 nM and > 381 nM
same,TGI,SNB-75 CNS,64.5 nM
same,GI50,SR leukemia,0.199 nM
same,TGI,SW-620 colon,1270 nM and 139 nM
same,TGI,T-47D breast,< 10 nM and 41.9 nM
same,GI50,TK-10 renal,< 10 nM and 49 nM
same,TGI,TK-10 renal,> 1000 nM
same,GI50,U251 CNS,< 10 nM and 2.2 nM
same,TGI,U251 CNS,< 43.5 nM and 159 nM
same,GI50,UACC-62 melanoma,< 10 nM and 4.26 nM
same,TGI,UACC-62 melanoma,< 10 nM and 18.8 nM
same,GI50,UO-31 renal,< 10 nM and 96.8 nM
CC(=O)c1c2n(n(-c3ccccc3)c1=O)C(=O)c1nccnc1-2,TGI,786-0 renal,> 100000 nM
same,TGI,A498 renal,> 100000 nM
same,TGI,A549 NSCLC,> 100000 nM
same,TGI,ACHN renal,> 100000 nM
same,TGI,BT-549 breast,> 100000 nM
same,TGI,CAKI-1 renal,> 100000 nM
same,TGI,COLO 205 colon,> 100000 nM
same,TGI,DU-145 prostate,> 100000 nM
same,TGI,EKVX NSCLC,> 100000 nM
same,TGI,HCC-2998 colon,> 100000 nM
same,TGI,HCT-116 colon,> 100000 nM
same,TGI,HCT-15 colon,> 100000 nM
same,TGI,HL-60(TB) leukemia,> 100000 nM
same,TGI,HOP-92 NSCLC,> 100000 nM
same,TGI,HS 578T breast,> 100000 nM
same,TGI,HT29 colon,> 100000 nM
same,TGI,IGROV1 ovarian,> 100000 nM
same,TGI,K-562 leukemia,> 100000 nM
same,TGI,KM12 colon,> 100000 nM
same,TGI,LOX IMVI melanoma,> 100000 nM
same,TGI,M14 melanoma,> 100000 nM
same,TGI,MALME-3M melanoma,> 100000 nM
same,TGI,MCF7 breast,> 100000 nM
same,TGI,MDA-MB-231 breast,> 100000 nM
same,TGI,MDA-MB-435,> 100000 nM
same,TGI,MDA-N,> 100000 nM
same,TGI,MOLT-4 leukemia,> 100000 nM
same,TGI,NCI-H226 lung,> 100000 nM
same,TGI,NCI-H23 lung,> 100000 nM
same,TGI,NCI-H460 lung,> 100000 nM
same,TGI,NCI-H522 lung,> 100000 nM
same,TGI,NCI/ADR-RES ovarian,> 100000 nM
same,TGI,OVCAR-3 ovarian,> 100000 nM
same,TGI,OVCAR-4 ovarian,> 100000 nM
same,TGI,OVCAR-5 ovarian,> 100000 nM
same,TGI,OVCAR-8 ovarian,> 100000 nM
same,TGI,PC-3 prostate,> 100000 nM
same,TGI,RPMI-8226 leukemia,> 100000 nM
same,TGI,RXF 393 renal,> 100000 nM
same,TGI,SF-268 CNS,> 100000 nM
same,TGI,SF-295 CNS,> 100000 nM
same,TGI,SF-539 CNS,> 100000 nM
same,TGI,SK-MEL-2 melanoma,> 100000 nM
same,TGI,SK-MEL-28 melanoma,> 100000 nM
same,TGI,SK-MEL-5 melanoma,> 100000 nM
same,TGI,SK-OV-3 ovarian,> 100000 nM
same,TGI,SN12C renal,> 100000 nM
same,TGI,SNB-19 CNS,> 100000 nM
same,TGI,SNB-75 CNS,> 100000 nM
same,TGI,SR leukemia,> 100000 nM
same,TGI,SW-620 colon,> 100000 nM
same,TGI,T-47D breast,> 100000 nM
same,TGI,U251 CNS,> 100000 nM
same,TGI,UACC-257 melanoma,> 100000 nM
same,TGI,UACC-62 melanoma,> 100000 nM
same,TGI,UO-31 renal,> 100000 nM

# Reference: PubChem BioAssay (NCI)
